Laboratory results from patent publication US8110586B2, “8-aza-bicyclo[3.2.1]octane derivatives and their use as monoamine neurotransmitter re-uptake inhibitors” (Neurosearch A/S, priority 2006, dated 2012).
Where a name gives a salt, the structure may show the parent alone.

Tests used:
[1] = target: T1, reuptake of dopamine (DA) in synaptosomes (Rattus norvegicus, UniProt P23977); test: Inhibition of dopamine reuptake in synaptosomes; type: biochemical; settings: 3H-DA, read-out: DA-uptake IC50
T1 construct: in synaptosomes as described in WO 97/16451; from tissue
T1 sequence (P23977 whole entry): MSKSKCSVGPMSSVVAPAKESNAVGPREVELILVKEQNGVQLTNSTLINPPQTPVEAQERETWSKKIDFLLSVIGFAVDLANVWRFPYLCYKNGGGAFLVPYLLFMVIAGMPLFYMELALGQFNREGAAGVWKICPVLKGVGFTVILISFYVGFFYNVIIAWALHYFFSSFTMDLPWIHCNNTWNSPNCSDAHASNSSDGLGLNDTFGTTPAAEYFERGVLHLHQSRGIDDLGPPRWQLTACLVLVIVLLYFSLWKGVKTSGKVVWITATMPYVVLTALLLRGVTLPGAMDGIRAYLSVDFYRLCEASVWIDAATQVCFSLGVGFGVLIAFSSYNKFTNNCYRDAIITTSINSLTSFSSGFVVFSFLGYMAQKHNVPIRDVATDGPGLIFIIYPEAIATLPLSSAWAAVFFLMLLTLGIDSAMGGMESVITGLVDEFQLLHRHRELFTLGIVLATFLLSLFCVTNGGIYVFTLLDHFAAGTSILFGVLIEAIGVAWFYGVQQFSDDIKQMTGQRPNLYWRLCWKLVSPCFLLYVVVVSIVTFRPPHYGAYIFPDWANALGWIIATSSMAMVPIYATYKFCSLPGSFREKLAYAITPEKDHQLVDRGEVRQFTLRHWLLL

[2] = target: T2, reuptake of serotonine (5-HT) in synaptosomes (Rattus norvegicus, UniProt P31652); test: Inhibition of serotonin reuptake in synaptosomes; type: biochemical
T2 construct: in synaptosomes as described in WO 97/16451; from tissue
T2 sequence (P31652 whole entry): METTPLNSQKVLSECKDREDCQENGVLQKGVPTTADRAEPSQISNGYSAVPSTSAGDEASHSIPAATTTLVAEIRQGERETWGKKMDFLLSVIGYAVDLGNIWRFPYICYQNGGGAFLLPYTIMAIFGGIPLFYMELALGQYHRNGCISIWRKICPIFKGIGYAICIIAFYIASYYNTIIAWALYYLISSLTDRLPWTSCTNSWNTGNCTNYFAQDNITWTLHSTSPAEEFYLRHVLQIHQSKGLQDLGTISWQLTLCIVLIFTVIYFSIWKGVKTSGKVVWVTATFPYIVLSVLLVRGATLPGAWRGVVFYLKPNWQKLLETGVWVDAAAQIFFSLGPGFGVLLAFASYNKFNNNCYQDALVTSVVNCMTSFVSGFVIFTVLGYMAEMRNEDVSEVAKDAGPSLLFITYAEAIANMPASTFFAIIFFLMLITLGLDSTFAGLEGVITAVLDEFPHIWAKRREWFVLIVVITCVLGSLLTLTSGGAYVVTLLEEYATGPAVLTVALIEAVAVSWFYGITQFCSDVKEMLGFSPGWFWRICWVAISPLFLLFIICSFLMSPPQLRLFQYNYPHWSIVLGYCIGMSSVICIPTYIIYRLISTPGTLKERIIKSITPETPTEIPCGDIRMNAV
Experimental: A number of compounds were tested for their ability to inhibit the reuptake of the monoamine neurotransmitters dopamine (DA) noradrenaline (NA) and serotonine (5-HT) in synaptosomes as described in WO 97/16451.
The test values are given as IC50 (the concentration (μM) of the test substance which inhibits the specific binding of ^3H-DA, ^3H-NA, or ^3H-5-HT by 50%).

SMILES	melting point	IC50 [1]	IC50 [2]
COc1ccc2cc(OC3CC4CCC(C3)N4)ccc2c1 (stereo not drawn) (as salt: hydrochloric acid salt) [First compound of Example A, exo-3-(6-Methoxy-naphthalen-2-yloxy)-8-aza-bicyclo[3.2.1]octane]	237 to 239 °C		
COc1ccc2ccc(OC3CC4CCC(C3)N4)cc2c1 (stereo not drawn) (as salt: hydrochloric acid salt) [Last compound of Example A, exo-3-(7-Methoxy-naphthalen-2-yloxy)-8-aza-bicyclo[3.2.1]octane]	225 °C		
COc1ccc2cc(OC3CC4CCC(C3)N4)ccc2c1 (stereo not drawn) [First compound of Example A, exo-3-(6-Methoxy-naphthalen-2-yloxy)-8-aza-bicyclo[3.2.1]octane]		420 nM	26 nM
COc1ccc2ccc(OC3CC4CCC(C3)N4)cc2c1 (stereo not drawn) [Last compound of Example A, exo-3-(7-Methoxy-naphthalen-2-yloxy)-8-aza-bicyclo[3.2.1]octane]		1400 nM	0.42 nM
